Data from US7718781B2, “Hydroxypyridonate and hydroxypyrimidinone chelating agents” (The Regents of the University of California, priority 2001, dated 2010).

Experiments:
[1] = molecular target: human serum albumin (HSA) (Homo sapiens, UniProt P02768); assay: Binding to HSA by proton relaxation enhancement (PRE) method
Text: Biomolecule affinity measurements are generally measured by art-recognized methods. For example, the non-covalent interaction between HSA and the metal complexes containing hydrophobic groups have been thoroughly investigated using the well-established proton relaxation enhancement (PRE) method (Caravan, P. E. et al., Chem. Rev. 1999, 99, 2293) that allows both the binding parameters (Ka) and the relaxivity enhancement of the (Metal complex)-HSA adduct to be determined. In this method, the water proton relaxation rates of solutions containing the metal complex and increasing concentrations of the serum protein are measured. […]
The longitudinal relaxation rate (R1) of water protons in a […] solution of Gd-TREN-1-Me-3,2-HOPO-TAM-PEG-5000 was measured with increasing concentrations of HSA (FIG. 19) at 20 MHz and 25° C. […]
An objective of synthesizing the Bn and MOB chelates was to investigate their interaction with HSA. The non-covalent interaction between HSA and the Gd complexes was investigated using the well-established proton relaxation enhancement (PRE) method that allows both the binding parameters (KA) and the relaxivity enhancement of the (Gd^3+ complex)-HSA adduct to be determined. In this method, the water proton longitudinal relaxation rates (R1) of solutions containing the Gd complex and increasing concentrations of the serum protein are measured.

[2] = Variable temperature 17O NMR of water transverse relaxation rate (water exchange, q); format: physicochemical
Experimental: The mean residence water lifetime, τm, is generally determined by measuring the transverse ^17O NMR relaxation rate (R2p) at various temperatures. The variable-temperature ^17O NMR measurement is performed using spectrometers which operate at various magnetic field strengths (2.1 and 9.4 T are typically used) equipped with a 5 mm probe. A D2O external lock and solutions containing 2.6% of the ^17O isotope are used. The observed transverse relaxation rates are calculated from the signal width at half-height. […]
A variable temperature ^17O NMR study of the transverse relaxation rate of H2^17O (R2p) of Gd-TREN-1-Me-3,2-HOPO-TAM, Gd-TREN-1-Me-3,2-HOPO-TAM-PEG-2000 and Gd-TREN-1-Me-3,2-HOPO-TAM-PEG-5000 at 2.1 T was carried out. Analysis of the profiles also allows the number of coordinated water molecules, q to be evaluated. […]
The value of τm, was independently obtained by a variable temperature (VT) ^17O NMR measurement of the water nuclear transverse relaxation rate (R2). The data were measured at 2.1 T (90 MHz for the proton and 12 MHz for 170) and pH≈7. The curve was analyzed in terms of the well established equations of Swift-Connick, rearranged in a form suitable for Gd. […]
Variable-temperature ^17O NMR measurements were recorded on a JEOL EX-400 (9.4 T) spectrometer, equipped with a 5 mm probe, by using D20 for external lock of the magnetic field. […]

[3] = Water proton relaxivity (longitudinal relaxation rate, 20 MHz); format: physicochemical
Experimental: The efficacy of a paramagnetic complex as a possible MRI contrast agent depends on its ability to catalyze the nuclear magnetic relaxation rate of solvent protons (Lauffer, R. B., Chem. Rev., 87, 901 (1987); Tweedle, M. F.; Kumar, K. In Magnetic Resonance Imaging (MRI) Contrast Agents; Clarke, M. I., Sadler, P. J., Eds.; Springer: Berlin, Germany, Vol. 2, p. 1 (1999); Koenig et al., Prog. NMR Spectrosc., 22:487 (1990)). This property, which is measured in terms in relaxivity, r1p, is defined as the enhancement of the water proton longitudinal relaxation rate induced by a 1 mML^−1 solution of the paramagnetic compound at a given temperature and magnetic field strength (Aime et al., Chem. Soc. Rev., 27:19 (1998)).
In an exemplary assay, the longitudinal water proton relaxation rate at 20 MHz are measured (typically with a NMR spectrometer operating at 0.5 T) with a reproducibility of the T1 data to ±0.5%. Equipment for the control of temperature (with an accuracy of ±0.1° C.) during these measurements are employed.
Water proton relaxation measurements were carried out at 20 MHz with a Stelar Spinmaster Spectrometer (Mede, Pv, Italy) on 0.5-2 mM solutions of the Gd(III) complex. Spin-lattice relaxation times T1 were measured by the standard inversion recovery method with typical 90° pulse width of […], 16 experiments of 4 scans. The reproducibility of the data is ±1%. The temperature was controlled by a Stelar VTC-91 air-flow heater equipped with copper-constantan thermocouple (uncertainty ±0.1° C). The 1/T1 nuclear magnetic relaxation dispersion (NMRD) profiles of water protons were measured from 0.00024 to 1.2 T (corresponding to the range 0.01-50 MHz of proton Larmor frequencies) at 15, 25 and 39° C. using 1.5 mM solutions of the complex on the field-cycling Koenig-Brown relaxometer of the University of Torino (Italy). The temperature was controlled by circulating freon from an external bath and measured by a thermometer inserted into the freon close to the sample. The reproducibilities of the measured T1 values were estimated to be ±2%. […]

Chain of human serum albumin (HSA) (P02768 25-609): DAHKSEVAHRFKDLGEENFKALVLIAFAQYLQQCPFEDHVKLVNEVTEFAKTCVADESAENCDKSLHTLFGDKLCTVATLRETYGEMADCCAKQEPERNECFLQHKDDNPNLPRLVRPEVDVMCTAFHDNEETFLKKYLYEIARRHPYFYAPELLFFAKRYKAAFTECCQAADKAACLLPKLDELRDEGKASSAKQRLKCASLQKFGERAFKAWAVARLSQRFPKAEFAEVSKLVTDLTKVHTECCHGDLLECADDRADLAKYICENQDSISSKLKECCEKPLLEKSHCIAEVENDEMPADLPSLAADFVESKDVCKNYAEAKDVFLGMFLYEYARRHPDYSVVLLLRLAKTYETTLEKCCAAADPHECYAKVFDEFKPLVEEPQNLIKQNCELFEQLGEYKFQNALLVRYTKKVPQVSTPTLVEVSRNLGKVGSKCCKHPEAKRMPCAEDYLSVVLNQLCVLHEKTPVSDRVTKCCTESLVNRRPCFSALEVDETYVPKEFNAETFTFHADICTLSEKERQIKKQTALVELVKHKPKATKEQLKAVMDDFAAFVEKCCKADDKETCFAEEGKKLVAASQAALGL

KA (HSA)/M^−1 ([1]; HSA): <100 M⁻¹
r1p^b/mM^−1s^−1 (HSA) ([1]; relaxivity of HSA-bound complex): 4.3 mM⁻¹ s⁻¹
Compound: O=C([O-])CN(CCN(CC(=O)[O-])CC(=O)O)CCN(CC(=O)[O-])CC(=O)O.[Gd+3] [Gd-DTPA]
τM/ns [2]: 303 ns
r1p/mM^−1s^−1 (20 MHz) [3]: 4.3 mM⁻¹ s⁻¹
